Experimental findings from patent publication US11814367B2, “Inhibitors of glycogen synthase 1 (GYS1) and methods of use thereof” (Maze Therapeutics, Inc., priority 2021, dated 2023) are described below.

Structures are written as SMILES.

The target in assay [1] is hGYS1 enzyme (recombinant hGYS1/GN1 protein) (Homo sapiens (Human), UniProt P13807). Description: GYS1 coupled enzyme assay (PK/LDH). Format: biochemical. The conditions noted are these: hGYS1/GN1 50 nM, UDP-Glucose 0.8 mM, G6P 1 mM; geometric mean of at least 2 runs.
Chain of hGYS1 enzyme (recombinant hGYS1/GN1 protein) (P13807 whole entry): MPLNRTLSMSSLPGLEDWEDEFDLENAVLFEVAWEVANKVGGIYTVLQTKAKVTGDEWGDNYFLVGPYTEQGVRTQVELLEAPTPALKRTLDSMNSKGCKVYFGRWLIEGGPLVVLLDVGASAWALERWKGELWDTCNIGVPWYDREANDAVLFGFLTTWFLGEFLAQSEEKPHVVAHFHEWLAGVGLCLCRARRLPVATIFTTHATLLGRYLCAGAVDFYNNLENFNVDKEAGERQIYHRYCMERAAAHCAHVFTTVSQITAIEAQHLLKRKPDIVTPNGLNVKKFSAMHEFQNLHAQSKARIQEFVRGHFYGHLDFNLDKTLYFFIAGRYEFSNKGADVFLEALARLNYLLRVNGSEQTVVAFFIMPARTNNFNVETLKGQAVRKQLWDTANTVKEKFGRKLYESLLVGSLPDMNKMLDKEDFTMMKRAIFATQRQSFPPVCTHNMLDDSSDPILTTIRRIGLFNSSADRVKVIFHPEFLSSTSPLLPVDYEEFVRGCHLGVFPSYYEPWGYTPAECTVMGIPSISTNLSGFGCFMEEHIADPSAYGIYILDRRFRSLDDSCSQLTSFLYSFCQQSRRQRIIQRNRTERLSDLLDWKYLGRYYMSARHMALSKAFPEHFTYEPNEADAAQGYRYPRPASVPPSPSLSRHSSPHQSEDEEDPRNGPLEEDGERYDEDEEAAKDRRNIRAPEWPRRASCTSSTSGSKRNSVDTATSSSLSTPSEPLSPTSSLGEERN
Chain of hGYS1 enzyme (recombinant hGYS1/GN1 protein) (P46976 whole entry partner): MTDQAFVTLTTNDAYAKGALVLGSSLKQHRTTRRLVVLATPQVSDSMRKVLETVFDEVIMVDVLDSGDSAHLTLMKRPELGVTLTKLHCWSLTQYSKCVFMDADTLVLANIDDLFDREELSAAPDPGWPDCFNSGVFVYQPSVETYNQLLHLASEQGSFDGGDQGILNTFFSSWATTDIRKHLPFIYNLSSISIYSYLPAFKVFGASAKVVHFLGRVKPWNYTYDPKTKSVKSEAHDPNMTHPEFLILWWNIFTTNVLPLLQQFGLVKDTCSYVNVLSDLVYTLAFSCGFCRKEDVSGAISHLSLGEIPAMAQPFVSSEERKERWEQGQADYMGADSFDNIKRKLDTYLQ
Assay [2] deals with hGYS1 enzyme / glycogen synthesis in HeLa cells. Briefly: GYS1 cell based assay (glycogen synthesis, Glucose-glo). The note with it: Homo sapiens, HeLa, 24 h, 24 h incubation, 20 mM glucose, geometric mean of at least 2 runs. Also on record: species or system human. In a few lines:
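HeLa cells starved 24 h in medium containing only 1× Glutamax were plated onto compound in medium with 20 mM glucose (1% DMSO final) for 24 h, 37 °C, 5% CO2. Acid lysates were Tris-quenched, glucoamylase-digested (pH 5.3, 1 h, 37 °C) and read by Glucose-glo luminescence. IC50 came from Hill fits, as geometric mean of ≥2 runs.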

Assay [3] deals with hGYS2 enzyme (recombinant hGYS2/GN1 protein) (Homo sapiens (Human), UniProt P54840). Briefly: GYS2 coupled enzyme assay (PK/LDH). The conditions noted are these: geometric mean of at least 2 assay runs on separate days, read-out: Avg_IC50. Format: biochemical. In a few lines: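 Continuous PK/LDH-coupled readout of NADH loss at 340 nm over 10 min, with 200 nM hGYS2/GN1 and 2 mM each of UDP-glucose, glucose-6-phosphate and PEP, in 50 mM Tris pH 7.5 with 0.2% glycogen and 2.5% DMSO. Slopes were normalized to controls and IC50s fit to a Hill curve from duplicates.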
Chain of hGYS2 enzyme (recombinant hGYS2/GN1 protein) (P54840 whole entry): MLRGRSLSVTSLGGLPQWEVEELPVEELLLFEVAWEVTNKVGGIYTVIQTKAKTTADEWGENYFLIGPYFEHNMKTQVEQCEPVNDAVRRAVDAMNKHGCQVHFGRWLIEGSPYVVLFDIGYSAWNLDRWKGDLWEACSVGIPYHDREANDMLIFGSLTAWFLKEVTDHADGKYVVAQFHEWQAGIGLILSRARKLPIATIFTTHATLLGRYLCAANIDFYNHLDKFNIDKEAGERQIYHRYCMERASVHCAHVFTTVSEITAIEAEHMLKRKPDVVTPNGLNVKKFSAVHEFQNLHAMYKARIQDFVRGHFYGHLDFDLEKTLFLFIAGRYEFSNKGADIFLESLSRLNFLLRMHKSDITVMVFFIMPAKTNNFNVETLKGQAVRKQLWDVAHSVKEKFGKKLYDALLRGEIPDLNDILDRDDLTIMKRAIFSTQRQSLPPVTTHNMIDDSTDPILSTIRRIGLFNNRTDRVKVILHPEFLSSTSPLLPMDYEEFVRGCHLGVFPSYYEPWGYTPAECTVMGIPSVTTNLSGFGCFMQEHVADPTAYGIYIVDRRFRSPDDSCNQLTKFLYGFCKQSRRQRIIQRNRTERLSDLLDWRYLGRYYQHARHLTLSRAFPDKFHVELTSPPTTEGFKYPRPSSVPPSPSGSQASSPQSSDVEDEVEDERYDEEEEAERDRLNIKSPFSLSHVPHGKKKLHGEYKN
Chain of hGYS2 enzyme (recombinant hGYS2/GN1 protein) (P46976 whole entry partner): as the sequence (P46976 whole entry partner) above

Consider `Cn1nc(CC(=O)N2C[C@H](F)C[C@H]2C(=O)N[C@@H](c2ccccc2)c2ccc(C3(C)CC3)c(F)c2)c2ccccc21` [Compound 564, (2S,4R)-4-fluoro-N-[(S)-[3-fluoro-4-(1-methylcyclopropyl)phenyl](phenyl)methyl]-1-[2-(1-methyl-1H-indazol-3-yl)acetyl]pyrrolidine-2-carboxamide], for which the IC50 in assay [1] was 0.056 µM; in assay [2] it was 0.79 µM; in assay [3], more than 100 µM.
With `CC1(c2ccc([C@@H](NC(=O)[C@@H]3C[C@@H](F)CN3C(=O)CNC(=O)N3CCOCC3)c3ccccc3)cc2F)CC1` [Compound 565, N-{2-[(2S,4R)-4-fluoro-2-{[(S)-[3-fluoro-4-(1-methylcyclopropyl)phenyl](phenyl)methyl]carbamoyl}pyrrolidin-1-yl]-2-oxoethyl}morpholine-4-carboxamide], the IC50 in assay [1] is 0.048 µM; in assay [2], 1.21 µM; in assay [3], more than 100 µM.
On the same counts, the results for `Cc1nc2ccccc2n1CC(=O)N1C[C@H](F)C[C@H]1C(=O)N[C@@H](c1ccccc1)c1ccc(C2(C)CC2)c(F)c1` [Compound 566, (2S,4R)-4-fluoro-N-[(S)-[3-fluoro-4-(1-methylcyclopropyl)phenyl](phenyl)methyl]-1-[2-(2-methyl-1H-1,3-benzodiazol-1-yl)acetyl]pyrrolidine-2-carboxamide] are 0.046 µM, 0.77 µM and more than 100 µM.
Regarding `Cn1c(=O)n(CC(=O)N2C[C@H](F)C[C@H]2C(=O)N[C@@H](c2ccccc2)c2ccc(C3(C)CC3)c(F)c2)c2ccccc21` [Compound 568, (2S,4R)-4-fluoro-N-[(S)-[3-fluoro-4-(1-methylcyclopropyl)phenyl](phenyl)methyl]-1-[2-(3-methyl-2-oxo-2,3-dihydro-1H-1,3-benzodiazol-1-yl)acetyl]pyrrolidine-2-carboxamide], the results for the IC50 in assay [1], in assay [2] and in assay [3] were 0.089 µM, 0.96 µM and 94.2 µM, respectively.
For `Cn1c(=O)ccn(CC(=O)N2C[C@H](F)C[C@H]2C(=O)N[C@@H](c2ccccc2)c2ccc(C3(C)CC3)c(F)c2)c1=O` [Compound 569, (2S,4R)-4-fluoro-N-[(S)-[3-fluoro-4-(1-methylcyclopropyl)phenyl](phenyl)methyl]-1-[2-(3-methyl-2,4-dioxo-1,2,3,4-tetrahydropyrimidin-1-yl)acetyl]pyrrolidine-2-carboxamide] the same measures were 0.066 µM, 0.96 µM and more than 100 µM.
On the same counts, the results for `CC1(c2ccc([C@@H](NC(=O)[C@@H]3C[C@@H](F)CN3C(=O)Cn3c(=O)[nH]c4ccccc43)c3ccccc3)cc2F)CC1` [Compound 570, (2S,4R)-4-fluoro-N-[(S)-[3-fluoro-4-(1-methylcyclopropyl)phenyl](phenyl)methyl]-1-[2-(2-oxo-2,3-dihydro-1H-1,3-benzodiazol-1-yl)acetyl]pyrrolidine-2-carboxamide] are 0.082 µM, 1.22 µM and more than 100 µM.
For `CC1(c2ccc([C@@H](NC(=O)[C@@H]3C[C@@H](F)CN3C(=O)Cc3n[nH]c4ccccc34)c3ccccc3)cc2F)CC1` [Compound 571, (2S,4R)-4-fluoro-N-[(S)-[3-fluoro-4-(1-methylcyclopropyl)phenyl](phenyl)methyl]-1-[2-(1H-indazol-3-yl)acetyl]pyrrolidine-2-carboxamide] the same measures were 0.075 µM, 0.93 µM and more than 100 µM.
With `CC1(c2ccc([C@@H](NC(=O)[C@@H]3C[C@@H](F)CN3C(=O)CN3CC(=O)NCC3=O)c3ccccc3)cc2F)CC1` [Compound 572, (2S,4R)-1-[2-(2,5-dioxopiperazin-1-yl)acetyl]-4-fluoro-N-[(S)-[3-fluoro-4-(1-methylcyclopropyl)phenyl](phenyl)methyl]pyrrolidine-2-carboxamide], the results for the IC50 in assay [1], in assay [2] and in assay [3] were 0.205 µM, 3.6 µM and more than 100 µM, respectively.
Turning to `CC1(c2ccc([C@@H](NC(=O)[C@@H]3C[C@@H](F)CN3C(=O)CN3Cc4ccccc4C3=O)c3ccccc3)cc2F)CC1` [Compound 573, (2S,4R)-4-fluoro-N-[(S)-[3-fluoro-4-(1-methylcyclopropyl)phenyl](phenyl)methyl]-1-[2-(1-oxo-2,3-dihydro-1H-isoindol-2-yl)acetyl]pyrrolidine-2-carboxamide], the IC50 in assay [1] was 0.178 µM; in assay [2] it was 1.66 µM; in assay [3], more than 100 µM.
On the same counts, the results for `CC1(c2ccc([C@@H](NC(=O)[C@@H]3C[C@@H](F)CN3C(=O)Cn3nnc4ccccc43)c3ccccc3)cc2F)CC1` [Compound 575, (2S,4R)-1-[2-(1H-1,2,3-benzotriazol-1-yl)acetyl]-4-fluoro-N-[(S)-[3-fluoro-4-(1-methylcyclopropyl)phenyl](phenyl)methyl]pyrrolidine-2-carboxamide] are 0.119 µM, 2.09 µM and more than 100 µM.
As to `CC1(c2ccc([C@@H](NC(=O)[C@@H]3C[C@@H](F)CN3C(=O)CN3C(=O)Cc4ccccc43)c3ccccc3)cc2F)CC1` [Compound 576, (2S,4R)-4-fluoro-N-[(S)-[3-fluoro-4-(1-methylcyclopropyl)phenyl](phenyl)methyl]-1-[2-(2-oxo-2,3-dihydro-1H-indol-1-yl)acetyl]pyrrolidine-2-carboxamide], the IC50 is 0.085 µM in assay [1], 1.8 µM in assay [2] and more than 100 µM in assay [3].
On the same counts, the results for `CN1C(=O)C(CC(=O)N2C[C@H](F)C[C@H]2C(=O)N[C@@H](c2ccccc2)c2ccc(C3(C)CC3)c(F)c2)c2ccccc21` (stereo partly drawn) [Compound 577, (2S,4R)-4-fluoro-N-[(S)-[3-fluoro-4-(1-methylcyclopropyl)phenyl](phenyl)methyl]-1-[2-(1-methyl-2-oxo-2,3-dihydro-1H-indol-3-yl)acetyl]pyrrolidine-2-carboxamide] are 0.478 µM, 3.98 µM and 41.2 µM.
For `CC1(c2ccc([C@@H](NC(=O)[C@@H]3C[C@@H](F)CN3C(=O)CN3CCN(C(=O)OCC(F)(F)F)CC3=O)c3ccccc3)cc2F)CC1` [Compound 578, 2,2,2-trifluoroethyl 4-{2-[(2S,4R)-4-fluoro-2-{[(S)-[3-fluoro-4-(1-methylcyclopropyl)phenyl](phenyl)methyl]carbamoyl}pyrrolidin-1-yl]-2-oxoethyl}-3-oxopiperazine-1-carboxylate] the same measures were 0.613 µM, 6.66 µM and 79.3 µM.
On the same counts, the results for `COCCN1CCN(C(=O)OCC(=O)N2C[C@H](F)C[C@H]2C(=O)N[C@@H](c2ccccc2)c2ccc(C3(C)CC3)c(F)c2)CC1` [Compound 579, 2-[(2S,4R)-4-fluoro-2-{[(S)-[3-fluoro-4-(1-methylcyclopropyl)phenyl](phenyl)methyl]carbamoyl}pyrrolidin-1-yl]-2-oxoethyl 4-(2-methoxyethyl) piperazine-1-carboxylate] are 0.059 µM, 1.83 µM and more than 100 µM.
Take `CC1(c2ccc([C@@H](NC(=O)[C@@H]3C[C@@H](F)CN3C(=O)CN3CCN(CC(F)(F)F)CC3=O)c3ccccc3)cc2F)CC1` [Compound 580, (2S,4R)-4-fluoro-N-[(S)-[3-fluoro-4-(1-methylcyclopropyl)phenyl](phenyl)methyl]-1-{2-[2-oxo-4-(2,2,2-trifluoroethyl)piperazin-1-yl]acetyl}pyrrolidine-2-carboxamide]: the IC50 in assay [1] was 0.249 µM; in assay [2], 4.27 µM; in assay [3] it was more than 100 µM.
For `CC1(c2ccc([C@@H](NC(=O)[C@@H]3C[C@@H](F)CN3C(=O)CC3C(=O)Nc4ccccc43)c3ccccc3)cc2F)CC1` (stereo partly drawn) [Compound 581, (2S,4R)-4-fluoro-N-[(S)-[3-fluoro-4-(1-methylcyclopropyl)phenyl](phenyl)methyl]-1-[2-(2-oxo-2,3-dihydro-1H-indol-3-yl)acetyl]pyrrolidine-2-carboxamide] the same measures were 0.269 µM, 3.92 µM and more than 100 µM.
For the compound `CC1(c2ccc([C@@H](NC(=O)[C@@H]3C[C@@H](F)CN3C(=O)Cn3cnnc3)c3ccccc3)cc2F)CC1` [Compound 582, (2S,4R)-4-fluoro-N-[(S)-[3-fluoro-4-(1-methylcyclopropyl)phenyl](phenyl)methyl]-1-[2-(4H-1,2,4-triazol-4-yl)acetyl]pyrrolidine-2-carboxamide], the IC50 in assay [1] is 0.319 µM; in assay [2], 8.08 µM; in assay [3], more than 100 µM.
On the same counts, the results for `CN1CCN(C(=O)OCC(=O)N2C[C@H](F)C[C@H]2C(=O)N[C@@H](c2ccccc2)c2ccc(C3(C)CC3)c(F)c2)CC1` [Compound 583, 2-[(2S,4R)-4-fluoro-2-{[(S)-[3-fluoro-4-(1-methylcyclopropyl)phenyl](phenyl)methyl]carbamoyl}pyrrolidin-1-yl]-2-oxoethyl 4-methylpiperazine-1-carboxylate] are 0.105 µM, 1.64 µM and more than 100 µM.
